Experimental data from patent publication US20190359645A1, “2'3'-CYCLIC DINUCLEOTIDES COMPRISING CARBOCYCLIC NUCLEOTIDE” (Institute of Organic Chemistry and Biochemistry ASCR, V.V.I., priority 2018, published 2019).

The compounds below were run against WT STING (Homo sapiens, UniProt Q86WV6, H232R) (assay: Digitonin assay using 293T wtSTING-FL reporter cells). Details: 293T wtSTING-FL cells, digitonin buffer 30 min, then 5 h, ISRE firefly luciferase reporter; read-out: Digitonin assay EC50 WT STING.
WT STING, sequence (Q86WV6 whole entry H232R): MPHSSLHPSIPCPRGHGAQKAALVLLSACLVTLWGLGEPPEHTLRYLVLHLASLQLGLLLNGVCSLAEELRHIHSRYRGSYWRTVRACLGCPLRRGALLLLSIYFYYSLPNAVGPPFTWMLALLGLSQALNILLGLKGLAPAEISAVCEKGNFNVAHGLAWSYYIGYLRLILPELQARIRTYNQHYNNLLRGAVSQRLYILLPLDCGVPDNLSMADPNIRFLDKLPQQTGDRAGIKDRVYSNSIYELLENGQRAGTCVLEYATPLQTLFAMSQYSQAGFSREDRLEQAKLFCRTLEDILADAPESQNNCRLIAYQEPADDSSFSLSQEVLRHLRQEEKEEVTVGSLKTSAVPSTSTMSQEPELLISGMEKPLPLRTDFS
Assay type: cell-based
Design: host or cells: 293T (ATCC CRL-3216), stably transfected; also carries the 4xISRE firefly luciferase reporter
Excerpt: Two complementary oligonucleotides of the sequence […] […] […] […] (SEQ ID NO: 1) and […] […] (SEQ ID NO:2) containing four interferon-sensitive response elements (ISRE) were synthesized by Sigma Aldrich (Czech Republic, Prague). The oligonucleotides were mixed in equal molar amounts, hybridized, and cleaved by restriction endonucleases HindIII (cat. #. R^0104S, NEB, Ipswich, USA) and BglII (cat. # R^0144S, NEB, Ipswich, USA). Ultimately, they were ligated into plasmid pGL4.27 (cat. # E6651, Promega, Madison, USA) linearized with the same enzymes. As a result, the sequence with four ISRE sites was placed upstream of the minimum promoter of firefly luciferase reporter gene.
293T cells (cat. # CRL-3216, ATCC, Manassas, USA) were seeded a day before transfection at density 125,000 cells per cm^2 onto poly-D-lysine (cat. # P6407, Sigma Aldrich, Czech Republic) coated six well plates in antibiotic free DMEM with high glucose (cat. # D5796, Sigma Aldrich, Czech Republic) supplemented with 10% heat inactivated FBS (cat. # S1520, Biowest, Riverside, USA). On the day of transfection, 2.5 μg of the plasmid pUNO1-hSTING-WT (cat. # punol-hstingwt, InvivoGen, San Diego, USA,) encoding human wild type STING (WT STING) was diluted in 125 μL OptiMEM medium (cat. #31985062, ThermoFisher, Waltham, USA) and mixed with 125 μL of the same medium containing 12.5 μL of Lipofectamine 2000 (cat. #11668019, ThermoFisher, Waltham, USA). After 5 minutes incubation at room temperature (RT), 250 μL of the mixture was added dropwise to the cells in one well. Cells were incubated 36 hours at 37° C. with 5% CO2, and then detached with 0.05% Trypsin and 0.22 g/L EDTA (both cat. # L0941, Biowest, Riverside, USA).
Transfected cells were seeded onto poly-D-lysine coated six well plates at density 50,000 cells per 1 cm^2 in DMEM medium with high glucose containing 10% heat inactivated FBS, […] blasticidin (cat. # ant-bl-05, InvivoGen, San Diego, USA), 0.06 mg/ml Penicillin G and 0.1 mg/ml Streptomycin Sulfate (both cat. #. L0018, Biowest, Riverside, USA). The medium was replenished every 3-4 days until visible colonies of cells resistant to blasticidin were formed.
Blasticidin resistant cells stably expressing WT STING were further transfected with […] plasmid following the same procedure as described above. The transfected cells were selected for the resistance to 300 μg/mL hygromycin (cat. #. 10687010, ThermoFisher, Waltham, USA) in DMEM with high glucose containing 10% heat inactivated FBS, […] blasticidin, 0.06 mg/ml Penicillin G and 0.1 mg/ml Streptomycin Sulfate. Homogeneous culture of stably double transfected cells was prepared by limiting dilution of cells in 96 well plates and wells with cells were selected that originated from a single cell. These cells were expanded, and expression of WT STING was confirmed by western blot using monoclonal mouse anti STING antibodies (cat. #. MAB7169, 1:1000 dilution; […] cat. #. HAF007, 1:2000 dilution, both from R&D Systems, Minneapolis, USA), and by induction of firefly luciferase expression in the presence of 50 μM STING agonist 2′3′ cGAMP (cat. # tlrl-nacga23, InvivoGen, San Diego, USA). Genomic DNA from the transfected cells was amplified with primers pUNO1_Seq_F ([…]) (SEQ ID NO:3) and pUNO1_Seq_R ([…]) (SEQ ID NO:4) that were complementary to pUNO1 plasmid and the presence of WT STING gene in the transfected cells was confirmed by DNA sequencing.
293T wtSTING-FL cells were seeded at density of 250,000 cells per cm^2 onto 96 well poly-D-lysine coated plates in 100 μl DMEM with high glucose supplemented with 10% heat inactivated FBS. […]

Row | SMILES | EC50 [nM]
1 | Nc1ncnc2c1ncn2[C@@H]1O[C@@H]2COP(=O)(S)O[C@@H]3[C@H](F)[C@@H](COP(=O)(S)O[C@H]2[C@H]1F)C[C@H]3n1cnc2c(=O)[nH]cnc21 (single isomer, unassigned) [Compound 128d] | 20
2 | Nc1ncnc2c1ncn2[C@@H]1O[C@@H]2COP(=O)(S)O[C@@H]3[C@H](F)[C@@H](COP(=O)(S)O[C@H]2[C@H]1F)C[C@H]3n1cnc2c(=O)[nH]cnc21 (single isomer, unassigned) [Compound 128b] | 400
3 | Nc1nc(N)c2ncn([C@@H]3O[C@@H]4COP(=O)(O)OC5C(O)[C@@H](COP(=O)(O)OC4C3F)C[C@H]5n3cnc4c(=O)[nH]c(N)nc43)c2n1 (stereo partly drawn) [Compound 117, (6R,8R,15R,17R)-17-(2-amino-6-oxo-6,9-dihydro-1H-purin-9-yl)-8-(2,6-diamino-9H-purin-9-yl)-9-fluoro-3,12,18-trihydroxy-2,4,7,11,13-pentaoxa-3λ^5,12λ^5-diphosphatricyclo[13.2.1.0^6,10]octadecane-3,12-dione] | 50
4 | Nc1ncc2ncn([C@@H]3O[C@@H]4COP(=O)(O)OC5C(O)[C@@H](COP(=O)(O)OC4C3O)C[C@H]5n3cnc4c(=O)[nH]c(N)nc43)c2n1 (stereo partly drawn) [Compound 106, (6R,8R,15R,17R)-17-(2-amino-6-oxo-6,9-dihydro-1H-purin-9-yl)-8-(2-amino-9H-purin-9-yl)-3,9,12,18-tetrahydroxy-2,4,7,11,13-pentaoxa-3λ^5,12λ^5-diphosphatricyclo[13.2.1.0^6,10]octadecane-3,12-dione] | 200
5 | Nc1nc2c(ncn2[C@@H]2C[C@@H]3COP(=O)(O)OC4C(F)[C@H](n5cnc6c(N)nc(F)nc65)O[C@@H]4COP(=O)(O)OC2C3O)c(=O)[nH]1 (stereo partly drawn) [Compound 111, (6R,8R,15R,17R)-8-(6-amino-2-fluoro-9H-purin-9-yl)-17-(2-amino-6-oxo-6,9-dihydro-1H-purin-9-yl)-9-fluoro-3,12,18-trihydroxy-2,4,7,11,13-pentaoxa-3λ^5,12λ^5-diphosphatricyclo[13.2.1.0^6,10]octadecane-3,12-dione] | 30
6 | CNc1ncnc2c1ncn2[C@@H]1O[C@@H]2COP(=O)(O)OC3C(O)[C@@H](COP(=O)(O)OC2C1O)C[C@H]3n1cnc2c(=O)[nH]c(N)nc21 (stereo partly drawn) [Compound 108, (6R,8R,15R,17R)-17-(2-amino-6-oxo-6,9-dihydro-1H-purin-9-yl)-3,9,12,18-tetrahydroxy-8-[6-(methylamino)-9H-purin-9-yl]-2,4,7,11,13-pentaoxa-3λ^5,12λ^5-diphosphatricyclo[13.2.1.0^6,10]octadecane-3,12-dione] | 170
7 | CSc1ncnc2c1ncn2[C@@H]1O[C@@H]2COP(=O)(O)OC3C(O)[C@@H](COP(=O)(O)OC2C1O)C[C@H]3n1cnc2c(=O)[nH]cnc21 (stereo partly drawn) [Compound 125, (1S,6R,8R,9R,10S,15R,17R,18R)-3,9,12,18-tetrahydroxy-8-[16-(methylsulfanyl)-9H-purin-9-yl]-17-(6-oxo-6,9-dihydro-1H-purin-9-yl)-2,4,7,11,13-pentaoxa-3λ^5,12λ^5-diphosphatricyclo[13.2.1.0^6,10]octadecane-3,12-dione] | 210
8 | Nc1nc2c(ncn2[C@@H]2C[C@@H]3COP(=O)(O)OC4C(O)[C@H](n5nnc6c(N)ncnc65)O[C@@H]4COP(=O)(O)OC2C3O)c(=O)[nH]1 (stereo partly drawn) [Compound 116, (6R,8R,15R,17R)-8-{7-amino-3H-[1,2,3]triazolo[4,5-d]pyrimidin-3-yl}-17-(2-amino-6-oxo-6,9-dihydro-1H-purin-9-yl)-3,9,12,18-tetrahydroxy-2,4,7,11,13-pentaoxa-3λ^5,12λ^5-diphosphatricyclo[13.2.1.0^6,10]octadecane-3,12-dione] | 1700
9 | Nc1nc2c(ncn2[C@@H]2C[C@@H]3COP(=O)(O)OC4C(O)[C@H](n5cnc6c(=O)[nH]cnc65)O[C@@H]4COP(=O)(O)OC2C3O)c(=O)[nH]1 (stereo partly drawn) [Compound 104, (6R,8R,15R,17R)-17-(2-amino-6-oxo-6,9-dihydro-1H-purin-9-yl)-3,9,12,18-tetrahydroxy-8-(6-oxo-6,9-dihydro-1H-purin-9-yl)-2,4,7,11,13-pentaoxa-3λ^5,12λ^5-diphosphatricyclo[13.2.1.0^6,10]octadecane-3,12-dione] | 100

Second part, the compound after the results:

Row | EC50 [nM] | SMILES
10 | 400 | Nc1ncnc2c1c(I)cn2[C@@H]1O[C@@H]2COP(=O)(O)OC3C(O)[C@@H](COP(=O)(O)OC2C1O)C[C@H]3n1cnc2c(=O)[nH]cnc21 (stereo partly drawn) [Compound 124, (6R,8R,15R,17R)-8-{4-amino-5-iodo-7H-pyrrolo[2,3-d]pyrimidin-7-yl}-3,9,12,18-tetrahydroxy-17-(6-oxo-6,9-dihydro-1H-purin-9-yl)-2,4,7,11,13-pentaoxa-3λ^5,12λ^5-diphosphatricyclo[13.2.1.0^6,10]octadecane-3,12-dione]
11 | 400 | C#Cc1cn([C@@H]2O[C@@H]3COP(=O)(O)OC4C(O)[C@@H](COP(=O)(O)OC3C2O)C[C@H]4n2cnc3c(=O)[nH]c(N)nc32)c2ncnc(N)c12 (stereo partly drawn) [Compound 114, (6R,8R,15R,17R)-8-{4-amino-5-ethynyl-7H-pyrrolo 2,3-dlpyrimidin-7-yl}-17-(2-amino-6-oxo-6,9-dihydro-1H-purin-9-yl)-3,9,12,18-tetrahydroxy-2,4,7,11,13-pentaoxa-3λ^5,12λ^5-diphosphatricyclo[13.2.1.0^6,10]octadecane-3,12-dione]
12 | 130 | Nc1nc2c(ncn2[C@@H]2C[C@@H]3COP(=O)(O)OC4C(N)[C@H](n5cnc6c(N)ncnc65)O[C@@H]4COP(=O)(O)OC2C3O)c(=O)[nH]1 (stereo partly drawn) [Compound 109, (6R,8R,15R,17R)-9-amino-17-(2-amino-6-oxo-6,9-dihydro-1H-purin-9-yl)-8-(6-amino-9H-purin-9-yl)-3,12,18-trihydroxy-2,4,7,11,13-pentaoxa-3λ^5,12λ^5-diphosphatricyclo[13.2.1.0^6,10]octadecane-3,12-dione]
13 | 400 | Nc1ncc2ncn([C@@H]3O[C@@H]4COP(=O)(O)OC5C(O)[C@@H](COP(=O)(O)OC4C3O)C[C@H]5n3cnc4c(=O)[nH]cnc43)c2n1 (stereo partly drawn) [Compound 119, (6R,8R,15R,17R)-8-(2-amino-9H-purin-9-yl)-3,9,12,18-tetrahydroxy-17-(6-oxo-6,9-dihydro-1H-purin-9-yl)-2,4,7,11,13-pentaoxa-3λ^5,12λ^5-diphosphatricyclo[13.2.1.0^6,10]octadecane-3,12-dione]
14 | 40 | Nc1ncnc2c1ncn2[C@@H]1O[C@@H]2COP(=O)(S)O[C@@H]3[C@H](F)[C@@H](COP(=O)(S)O[C@H]2[C@H]1F)C[C@H]3n1cnc2c(=O)[nH]cnc21 (single isomer, unassigned) [Compound 128a]
15 | 30 | Nc1ncnc2c1ncn2[C@@H]1O[C@@H]2COP(=O)(O)O[C@@H]3[C@H](F)[C@@H](COP(=O)(O)O[C@H]2[C@H]1F)C[C@H]3n1cnc2c(=O)[nH]cnc21 [Compound 127]

Same assay, conditions: Digitonin assay EC50 WT STING, 293T wtSTING-FL cells, digitonin buffer 30 min, then 5 h, ISRE firefly luciferase reporter

Row | SMILES | EC50 [nM]
16 | Nc1nc2c(ncn2[C@@H]2C[C@@H]3COP(=O)(O)OC4C(O)[C@H](n5cnc6c(N)ncnc65)O[C@@H]4COP(O)(=S)OC2C3O)c(=O)[nH]1 (stereo partly drawn) [Compound 101, 2-amino-9-[(6R,8R,15R,17R)-8-(6-amino-9H-purin-9-yl)-3,9,12,18-tetrahydroxy-12-oxo-3-sulfanylidene-2,4,7,11,13-pentaoxa-3λ^5,12λ^5-diphosphatricyclo[13.2.1.0^6,10]octadecan-17-yl]-6,9-dihydro-1H-purin-6-one] | 10
